# Reference: patent US8202910B2 (Sequella, Inc., priority 2006, dated 2012)
# Several values for one entry are separate records, joined by “and”; a condition that tells them apart may be missing. Equal entries are not always repeated. Where two headings read alike, the source gives them in different places.
# Experiments:
# [1] = system: H37Rv strain of Mycobacterium tuberculosis; experiment: microbe, parasite or virus in culture; type: cell-based
# cells = experiment: LD50 for selectivity index (Table 10); type: cell-based, Mycobacterium tuberculosis; conditions: for SI (Selectivity Index): LD50 : MIC
# Text: Table 10 lists MIC and LD50 data for selected compounds. […] Table 11 lists MIC data for purified substituted ethylene diamines in comparison to ethambutol (EMB).
# [2] = system: monkey kidney cells (Vero); experiment: In vitro toxicity, Vero cells; type: cell-based; conditions: Primates
# Description: Twenty six compounds (including 37, 59 and 109) were tested in an in vitro model of toxicity using monkey kidney cells (Vero) and human cervical cancer cells (HeLa) using methods well known to those skilled in the art. The data from this toxicity testing and the MIC data were used to calculate a selectivity index (SI), the ratio of IC50:MIC (Table 15). Selectivity Indexes were ranging from 1.76 to 16.67.
# M. tuberculosis H37Rv = experiment: In vivo efficacy, mice infected i.v. with M. tuberculosis, CFU in spleen and lungs; design: species or system C57BL/6 mice; conditions: for activity in vivo, spleen and lung: 25 mg/kg, 5×10^6 CFU, 4 weeks
# wild type of M.tb = experiment: MIC, secondary screening, wild type; type: cell-based, Mycobacterium tuberculosis; conditions: Mycobacterium tuberculosis, WT; EMB, RL241, Cmpd#59 as 2HCl salt, Cmpd#109 as 2CF3COOH salt; read-out: MIC
# [3] = Mycobacterium tuberculosis, H37RV, read-out: MIC
# [4] = concentration at which 50% of the cells are killed
# [5] = Mycobacterium tuberculosis, H37RV, Table 10, from uM and MW, read-out: MIC
# [6] = Mycobacterium tuberculosis, H37RV, Table 10, read-out: MIC
# [7] = Mycobacterium tuberculosis, H37RV, Table 15, read-out: MIC
compound,measurement,setting,value
CCC(CO)NCCN[C@@H]1C[C@@H]2CC([C@H]1C)C2(C)C (mixture of isomers) [Compound 68],MIC,[1]; [3],500 µM
COc1ccc(CCNCCNCC23CC4CC(CC(C4)C2)C3)cc1OC [Compound 4],MIC,[1],62.5 µM
same,MIC,[1]; [3],125 µM
CC(CNCCC(c1ccccc1)c1ccccc1)NCC12CC3CC(CC(C3)C1)C2 (stereo not drawn) [Compound 6],SI (Selectivity Index),cells,2.56
same,LD50,cells; [4],20 µM
same,LD50,cells; from uM and MW,10.72 µg/mL
same,MIC,[1]; [5],4.19 µg/mL
same,MIC,[1]; [6],7.81 µM
"CC1CC(C)CN(CCNCCC(c2ccccc2)c2ccccc2)C1 (stereo not drawn) [Compound 15, 1-{2-[N-(3,3-Diphenylpropyl)]-aminoethyl}-3,5-dimethyl-piperidine]",MIC,[1],250 µM and 500 µM
same,MIC,[1]; [3],> 500 µM
"CC1CCCC(NCCNCC(c2ccccc2)c2ccccc2)C1C (stereo not drawn) [Compound 29, N-(2,2-Diphenylethyl)-N′-(2,3-dimethylcylcohexyl)ethane-1,2-diamine]",MIC,[1],31.25 µM
same,MIC,[1]; [3],62.5 µM
"CC(C)(C)CC(C)(C)NCCNCC(c1ccccc1)c1ccccc1 [Compound 33, N-(2,2-Diphenylethyl)-N′-(1,1,3,3-tetramethylbutyl)-ethane-1,2-diamine]",MIC,[1],31.25 µM
same,MIC,[1]; [3],62.5 µM
"c1ccc(C(CNCCNCC23CC4CC(CC(C4)C2)C3)c2ccccc2)cc1 [Compound 34, N-(2,2-Diphenylethyl)-N′-(1-methyladamantyl)ethane-1,2-diamine]",SI (Selectivity Index),cells,4.096
same,LD50,cells; [4],32 µM
same,LD50,cells; from uM and MW,16.256 µg/mL
same,MIC,[1]; [5],3.97 µg/mL
same,MIC,[1]; [6],7.81 µM
"CC(CNCC(c1ccccc1)c1ccccc1)NCC1CCC2C[C@@H]1C2(C)C (stereo partly drawn) [Compound 38, N-(−)-cis-(Myrtanyl)-N′-(2,2-diphenylethyl)propyl-1,2-diamine]",IC50,[2],33 µM
same,MIC,[1]; [7],6.25 µM
"C[C@@H]1C2C[C@@H](C[C@H]1NCCNCC(c1ccccc1)c1ccccc1)C2(C)C [Compound 40, N-(2,2-Diphenylethyl)-N′-(1R,2R,3R,5S)-(−)-isopinocampheylethane-1,2-diamine]",IC50,[2],25 µM
same,MIC,[1]; [7],15.6 µM
"CC1CCCC(NCCNC[C@@H]2CCC3C[C@@H]2C3(C)C)C1C (stereo partly drawn) [Compound 41, N-(−)-cis-(Myrtanyl)-N′-(2,3-dimethylcyclohexyl)ethane-1,2-diamine]",IC50,[2],19 µM
same,MIC,[1]; [7],3.13 µM
"C[C@@H]1C2C[C@@H](C[C@H]1NCCNCC1CCC3C[C@@H]1C3(C)C)C2(C)C (stereo partly drawn) [Compound 47, N-(−)-cis-Myrtanyl-N′-(1R, 2R, 3R, 5S)-(−)-isopinocampheylethane-1,2-diamine]",SI (Selectivity Index),cells,1.6
same,LD50,cells; [4],25 µM
same,LD50,cells; from uM and MW,11.3 µg/mL
same,MIC,[1]; [5],7.06 µg/mL
same,MIC,[1]; [6],15.6 µM
"C[C@@H]1[C@@H](NCCNC2CCCCCCC2)C[C@H]2C[C@@H]1C2(C)C [Compound 53, N-Cyclooctyl-N′-(1S, 2S, 3S, 5R)-(+)-isopinocampheyl-ethane-1,2-diamine]",MIC,[1]; [3],31.2 µM
"C1CCCC(NCCNCC23CC4CC(CC(C4)C2)C3)CCC1 [Compound 55, N-(Cyclooctyl)-N′-(1-methyladamantyl)ethane-1,2-diamine]",IC50,[2],34 µM
same,MIC,[1],15.625 µM and 15.6 µM
same,MIC,[1]; [7],15.6 µM
same,MIC,[1]; [3],15.6 µM
"CC[C@@H](CO)NCCNC1CCCCCCC1 [Compound 56, N-(Cyclooctyl)-N′-(2S)-[2-(1-hydroxybutyl)]ethane-1,2-diamine]",MIC,[1],>500 µM
same,MIC,[1]; [3],500 µM
"CC1(C)C2CCC(CNCCNC3CCCCCCC3)[C@@H]1C2 (stereo partly drawn) [Compound 57, N-(−)-cis-Myrtanyl-N′-(cyclooctyl)ethane-1,2-diamine]",IC50,[2],22 µM
same,SI (Selectivity Index),cells,1.152
same,LD50,cells; [4],18 µM
same,LD50,cells; from uM and MW,7.668 µg/mL
same,MIC,[1]; [5],6.66 µg/mL
same,MIC,[1]; [6],15.6 µM
same,MIC,[1]; [7],11.7 µM
"C1CCCC(NCCNC2C3CC4CC(C3)CC2C4)CCC1 (stereo not drawn) [Compound 58, N-(Cyclooctyl)-N′-(2-adamantyl)ethane-1,2-diamine]",IC50,[2],82 µM
same,"activity in vivo, spleen and lung",M. tuberculosis H37Rv,active in vivo in both spleen and lung
same,MIC,[1]; [7],12.5 µM
CC(NCCNC1CCCCCCC1)c1cccc2ccccc12 (stereo not drawn) [Compound 61],MIC,[1],31.25 µM
same,MIC,[1]; [3],62.5 µM
"c1ccc(C2CC2NCCNC2CCCCCCC2)cc1 (stereo not drawn) [Compound 63, N-(Cyclooctyl)-N′-trans-(2-phenylcyclopropyl)ethane-1,2-diamine]",MIC,[1],31.25 µM
same,MIC,[1]; [3],62.5 µM
"c1ccc(C2CC2NCCNC2C3CC4CC(C3)CC2C4)cc1 (stereo not drawn) [Compound 64, N-(2-Adamantyl)-N′- trans-(2-phenylcyclopropyl)ethane-1,2-diamine]",MIC,[1]; [3],31.2 µM
"c1ccc(C2CC2NCCNC23CC4CC(CC(C4)C2)C3)cc1 (stereo not drawn) [Compound 65, N-(1-Adamantyl)-N′- trans-(2-phenylcyclopropyl)ethane-1,2-diamine]",SI (Selectivity Index),cells,3.84
same,LD50,cells; [4],60 µM
same,LD50,cells; from uM and MW,25.8 µg/mL
same,MIC,[1],31.25 µM
same,MIC,[1]; [5],6.72 µg/mL
same,MIC,[1]; [6],15.6 µM
same,MIC,[1]; [3],15.6 µM
"C[C@@H]1C2C[C@@H](C[C@H]1NCCNCCC(c1ccccc1)c1ccccc1)C2(C)C [Compound 66, N-(3,3-Diphenylpropyl)-N′-(1R, 2R, 3R, 5S)-(−)-isopinocampheylethane-1,2-diamine]",IC50,[2],28 µM
same,MIC,[1]; [7],15.6 µM
"C[C@@H]1C2C[C@@H](C[C@H]1NCCNC(c1ccccc1)c1ccccc1)C2(C)C [Compound 71, N-(1,1-Diphenylmethyl)-N′-(1R, 2R, 3R, 5S)-(−)-isopinocampheylethane-1,2-diamine]",MIC,[1],31.25 µM
same,MIC,[1]; [3],62.5 µM
"COc1ccccc1CCNCCNC1C2CC3CC(C2)CC1C3 (stereo not drawn) [Compound 73, N-(2-Adamantyl)-N′-[2-(2-methoxyphenyl)ethyl]ethane-1,2-diamine]",IC50,[2],81 µM
same,activity in the spleen compared with EMB,"M. tuberculosis H37Rv; 1 mg/kg and 10 mg/kg, 5×10^5 CFU, chemotherapy from day 20",equal to that of EMB at 100 mg/kg
same,MIC,[1]; [7],12.5 µM
"C=CCN(CCNCCc1ccccc1OC)C1CCCC1 [Compound 76, N-Allyl-N-cyclopentyl-N′-[2-(2-methoxyphenyl)ethyl]ethane-1,2-diamine]",MIC,[1],31.25 µM
same,MIC,[1]; [3],62.5 µM
"c1ccc2c(c1)CC(NCCNC1C3CC4CC(C3)CC1C4)C2 (stereo not drawn) [Compound 78, N-2-Adamantyl-N′-2,3-dihydro-1H-inden-2-yl-ethane-1,2-diamine]",IC50,[2],130 µM
same,MIC,[1]; [7],15.6 µM
"C1CCCC(NCCNC2CCCCCCC2)CCC1 [Compound 103, N,N′-Bis(cyclooctyl)ethane-1,2-diamine]",MIC,[1],62.5 µM
same,MIC,[1]; [3],31.2 µM
CCOCCCNCCNCC(c1ccccc1)c1ccccc1 [Compound 107],MIC,[1],250 µM
same,MIC,[1]; [3],500 µM
"CCC1CCCCN1CCNC/C=C(\C)CCC=C(C)C (stereo not drawn) [Compound 111, N-[2-(N′-Geranyl)aminoethyl]-2-ethylpiperidine]",IC50,[2],45 µM
same,anti-tuberculosis activity compared with EMB,"M. tuberculosis H37Rv; 10 mg/kg, B6 mice, 5×10^5 CFU, chemotherapy from day 20",comparable to that of EMB at 100 mg/kg
same,"activity in vivo, spleen and lung",M. tuberculosis H37Rv,active in vivo in both spleen and lung
same,SI (Selectivity Index),cells,5.632
same,LD50,cells; [4],44 µM
same,LD50,cells; from uM and MW,18.128 µg/mL
same,MIC,[1],7.813 µM and 7.8 µM
same,MIC,[1]; [5],3.22 µg/mL
same,MIC,[1]; [6],7.81 µM
same,MIC,[1]; [7],7.81 µM
same,MIC,[1]; [3],7.81 µM
"C=CCN(CCNCCc1ccccc1Cl)C1CCCC1 [Compound 118, N-2-(2-Chlorophenyl)ethyl-N′-allyl-N′-(cyclopentyl)ethane-1,2-diamine]",MIC,[1],62.5 µM
same,MIC,[1]; [3],31.2 µM
"Fc1cccc(CCNCCNCCc2ccccc2Cl)c1 [Compound 119, N-2-(2-Chlorophenyl)ethyl-N′-[2-(3-fluorophenyl)-ethyl]ethane-1,2-diamine]",MIC,[1],62.5 µM
same,MIC,[1]; [3],125 µM
"CC(CNC[C@@H]1CCC2C[C@@H]1C2(C)C)NCC1CCC2C[C@@H]1C2(C)C (stereo partly drawn) [Compound 125, N,N′-bis-(−)-cis-Myrtanylpropane-1,2-diamine]",MIC,[1],15.625 µM
same,MIC,[1]; [3],15.6 µM
"CC(NCCNCC(c1ccccc1)c1ccccc1)C(O)c1ccc(O)c(O)c1 (stereo not drawn) [Compound 134, N-[2-(N′-2,2-Diphenylethyl)-aminoethyl]-(−)-3,4-dihydroxynorephedrine]",MIC,[1],500 µM
same,MIC,[1]; [3],> 500 µM
"COc1ccccc1CCNCCN[C@@H]1C[C@@H]2CC([C@H]1C)C2(C)C [Compound 151, N-[2-(2-Methoxy)phenylethyl]-N′-(1R, 2R, 3R, 5S)-(−)-isopinocampheyl-ethane-1,2-diamine]",SI (Selectivity Index),cells,5.248
same,LD50,cells; [4],41 µM
same,LD50,cells; from uM and MW,18.45 µg/mL
same,MIC,[1],7.813 µM
same,MIC,[1]; [5],3.52 µg/mL
same,MIC,[1]; [6],7.81 µM
same,MIC,[1]; [3],15.6 µM
"COc1ccc(CCNCC(NCCc2ccc(F)cc2)c2ccccc2)cc1 (stereo not drawn) [Compound 164, N^1-[2-(4-fluorophenyl)ethyl]-N^2-[2-(4-Methoxy)phenylethyl)-1-phenylethane-1,2-diamine]",MIC,[1],125 µM
same,MIC,[1]; [3],62.5 µM
CC1(C)CC2CC(C)(CN2CCNC[C@@H]2CCC3C[C@@H]2C3(C)C)C1 [MP 116],MIC,wild type of M.tb,6.25 µg/mL
C[C@@H]1C2C[C@@H](C[C@H]1NCCNC[C@@H]1CCC3C[C@@H]1C3(C)C)C2(C)C [MP 117],MIC,wild type of M.tb,6.25 µg/mL
"C(CNC1C2CC3CC(C2)CC1C3)NC1C2CC3CC(C2)CC1C3 (stereo not drawn) [SQBisAd, Bis(2-Adamantyl)ethylenediamine]",MIC (Minimal Inhibitory Concentration) compared with compound 109,[1],equal or better than compound 109
